Patent US20230081034A1 (SHANGHAI BENEMAE PHARMACEUTICAL CORPORATION, priority 2020, published 2023)
“Also recorded” adds a separate entry of the source.

What was measured:
[1] = test system: patients with type 2 diabetes; assay: Randomized, double-blind, placebo-controlled clinical trial: subcutaneous beinaglutide before meals in combination with oral metformin, 12-week treatment; assay type: in vivo, human
Description: The inclusion criteria (if any) are as follows: Type 2 diabetic patients that met the World Health Organization's diagnostic criteria for type 2 diabetes (WHO, 1999) who received oral metformin treatment at dosages 1,000 mg/d that had stabilized for at least 3 months without treatment-related adverse events (e.g., vomiting) and voluntarily signed informed consent and with the following criteria:
In a randomized, double-blind, placebo-controlled clinical trial, 42 patients with type 2 diabetes treated with metformin monotherapy were randomly divided into a treatment group and a control group, with 21 cases in each group. All patients received metformin (Glucophage, purchased from Bristol-Myers Squibb) with original dosages. 200 μg of beinaglutide (from Benemae, treatment group) or a placebo (Benemae, control group) were administered to patients by one-time subcutaneous injection before each of three meals (600 μg/d) and followed up after a 12-week treatment.
Glycated hemoglobin (HbA1c), fasting blood glucose, 2 h postprandial blood glucose, BMI, and other effectiveness indicators were measured.

[2] = test system: obese and overweight patients with type 2 diabetes; assay: Beinaglutide dosing regimen (continuous subcutaneous pump plus pre-meal doses), alone or with metformin / insulin glargine, one month; assay type: in vivo, human
Description: The beinaglutide dosing regimen included 1) a continuous subcutaneous administration of beinaglutide at 12.5 μg/h (300 μg/d) via a subcutaneous pump, 2) a one-time subcutaneous administration of beinaglutide at a dose of 100 μg 5 min before each of the three meals a day, and 3) optional administration of insulin glargine and/or metformin.
The patients treated were overweight/obesity in short disease course of type 2 diabetes. Two patients were female, and four patients were male. The patients were 30 to 55 years old with a course of disease between 0 and 5 years with glycated hemoglobin between 9% and 12%, and BMI between 26 and 30 kg/m^2.
Three patients were treated with beinaglutide monotherapy. Three patients were treated with a combinational therapy of beinaglutide and one or two third active ingredients (metformin, or metformin and glargine). Glycated hemoglobin (HbA1c) and weight were measured.
The patients were treated with the beinaglutide dosing regimen described herein, either alone or in combination with one or more third active ingredients. Some patients were treated with insulin (daily dosage of 0.5 u/kg) pump treatment alone or in combination with metformin (0.5 g tid) for a week right before starting the beinaglutide treatment.

[3] = treatment group, after 12 weeks beinaglutide 600 μg/d s.c. + metformin
[4] = Patient 2: insulin (0.5 u/kg) 1 week, then beinaglutide regimen + metformin (0.5 g tid) 1 month

## His-Ala-Glu-Gly-Thr-Phe-Thr-Ser-Asp-Val-Ser-Ser-Tyr-Leu-Glu-Gly-Gln-Ala-Ala-Lys-Glu-Phe-Ile-Ala-Trp-Leu-Val-Lys-Gly-Arg [beinaglutide]
[1]; 12 weeks, P>0.05
  BMI, treatment group versus control group: no statistic differences between the two groups
[1]; 2 h postprandial, treatment group, beinaglutide 600 μg/d s.c. + metformin, 12 weeks, P<0.01
  Postprandial blood glucose decreased by: 4.18 mmol/L
[1]; treatment group (21 cases), metformin at original dosage + beinaglutide 200 μg s.c. before each of three meals (600 μg/d), 12 weeks, P<0.01
  HbA1c decreased by: 1.17%
[1]; treatment group vs placebo + metformin, 12 weeks, P<0.05
  HbA1c and fasting blood glucose post-treatment versus control group: even more significant decrease comparing with control group
[1]; treatment group, 12 weeks beinaglutide 600 μg/d + metformin
  HbA1c and fasting blood glucose post-treatment versus pre-treatment: significant decrease comparing with the pre-treatment indicators
[1]; treatment group, 12 weeks, P<0.05 (control group also decreased)
  BMI change after treatment: significant decrease in BMI
[1]; treatment group, after 12 weeks beinaglutide 200 μg s.c. before each of three meals + metformin
  HbA1c post-treatment: 6.8%
[1]; [3]
  Fasting blood glucose post-treatment: 7.45 mmol/L
  Postprandial blood glucose post-treatment: 11.02 mmol/L
[1]; treatment group, baseline
  Fasting blood glucose pre-treatment: 9.43 mmol/L
  Postprandial blood glucose pre-treatment: 15.2 mmol/L
[1]; treatment group, baseline before beinaglutide 600 μg/d + metformin
  HbA1c pre-treatment: 7.97%
[1]; treatment group, beinaglutide 600 μg/d s.c. + metformin, 12 weeks
  Fasting blood glucose decreased by: 1.98 mmol/L
[2]; Patient 1, baseline
  Body weight pre-treatment: 61 kg
  HbA1c pre-treatment: 9.4%
[2]; Patient 1: insulin (0.5 u/kg) + metformin (0.5 g tid) 1 week, then beinaglutide monotherapy (12.5 μg/h continuous s.c. + 100 μg before each of three meals) 1 month
  Body weight post-treatment: 57.5 kg
[2]; Patient 2, baseline
  Body weight pre-treatment: 99 kg
  HbA1c pre-treatment: 8.8%
[2]; [4]
  Body weight post-treatment: 93 kg
  HbA1c post-treatment: 6.3%
[2]; Patient 3, baseline
  Body weight pre-treatment: 88 kg
  HbA1c pre-treatment: 12.3%
[2]; Patient 3: insulin (0.5 u/kg) 1 week, then beinaglutide regimen + metformin (0.5 g tid) 1 month
  Body weight post-treatment: 83 kg
[2]; Patient 4, baseline
  Body weight pre-treatment: 80 kg
  HbA1c pre-treatment: 9.3%
[2]; Patient 4: insulin (0.5 u/kg) 1 week, then beinaglutide regimen + metformin (0.5 g tid) + insulin glargine (16 u s.c. before bed) 1 month
  Body weight post-treatment: 73 kg
[2]; Patient 5, baseline
  Body weight pre-treatment: 80 kg
  HbA1c pre-treatment: 7.3%
[2]; Patient 5: beinaglutide monotherapy (12.5 μg/h continuous s.c. + 100 μg before each of three meals) 1 month
  Body weight post-treatment: 77 kg
[2]; Patient 6, baseline
  Body weight pre-treatment: 85 kg
  HbA1c pre-treatment: 9.7%
[2]; Patient 6: insulin (0.5 u/kg) 1 week, then beinaglutide monotherapy (0.6 mg/d) 1 month
  Body weight post-treatment: 78 kg
[2]; six patients, continuous 300 μg/d + 100 μg tid before meal, alone or with metformin or metformin and insulin glargine, one month
  Overall outcome on body weight and HbA1c: significant weight loss and/or HbA1c decrease; also recorded: achieved decrease in HbA1c and/or body weight
